Source: patent publication US20260041653A1, “AN HDAC INHIBITOR FOR TREATING CANCER WITH A MODIFIED STK11 ACTIVITY OR EXPRESSION” (Tango Therapeutics, Inc., priority 2022, published 2026)

Test system: MC38_sgStk11 tumor
Test: Anti-tumor efficacy in murine subcutaneous MC38_sgStk11 tumor model
Assay type: in vivo, Mus musculus
Conditions: for T/C / TGI %: day 11
Experimental: Summary: An in vivo anti-tumor efficacy of double combination treatment of Anti-PD1 and HDAC1,2-selective inhibitor in a murine subcutaneous MC38_sgStk11 tumor model in […] mice was performed.
96 mice plus 39 spare mice of the species: Mus musculus: strain: C57BL/6; age 8-10 weeks; sex: female; and body weight: 16.9-20.0 g
The MC38_sgStk11 tumor cells were maintained in vitro as a monolayer culture in DMEM+2 mM glutamine supplemented with about 10% heat inactivated fetal bovine serum, about 100 U/ml penicillin and 100 μg/ml streptomycin at about 37° C. in an atmosphere of about 5% CO2 in air. The tumor cells were routinely sub-cultured twice weekly by trypsin-EDTA treatment. The cells growing in an exponential growth phase were harvested and counted for tumor inoculation.
Each mouse was inoculated subcutaneously at the right upper flank with MC38_sgStk11 tumor cells (0.5×106) in 0.1 ml of PBS for tumor development. Treatments were started on day 4 after tumor inoculation when the average tumor size reached 52 mm^3. The animals were assigned into groups according to a sorting standard operating procedures based upon their tumor volumes. Each group consisted of 8 tumor bearing mice. The testing article was administrated to the mice according to the predetermined regimen as shown in the experimental design table (Table 1-1).
All the procedures related to animal handling, care and the treatment in the study were performed according to the guidelines approved by the Institutional Animal Care and Use Committee (IACUC) of vendor following the guidance of the Association for Assessment and Accreditation of Laboratory Animal Care (AAALAC). At the time of routine monitoring, the animals were daily checked for any effects of tumor growth and treatments on normal behavior such as mobility, food and water consumption, body weight gain/loss (body weights were measured three times per week), eye/hair matting and any other abnormal effect as stated in the protocol. Death and observed clinical signs were recorded on the basis of the numbers of animals within each subset.
A primary endpoint was to see if the tumor growth could be delayed or mice could be cured. Tumor size was measured three times per week in two dimensions using a caliper, and the volume was expressed in mm3 using the formula: V=0.5 a×b2 where a and b are the long and short diameters of the tumor, respectively. The T/C value (in percent) is an indication of antitumor effectiveness; T and C are the mean volume of the treated and control groups, respectively, on a given day. TGI is calculated for each group using the formula: TGI (%)=[1−(Ti−T0)/(Vi−V0)]×100; Ti is the average tumor volume of a treatment group on a given day, T0 is the average tumor volume of the treatment group on the day of treatment start, Vi is the average tumor volume of the vehicle control group on the same day with Ti, and V0 is the average tumor volume of the vehicle group on the day of treatment start.
Statistical analysis of difference in the tumor volume among the groups were conducted on the data obtained at the best therapeutic time point at the day 11 after the start of treatment. A one-way ANOVA was performed for comparisons between groups. The survival analysis between groups was carried out with Kaplan-Meier test. p<0.05 was considered to be statistically significant.

[1] = Gr 5: Compound I 75 mg/kg PO QD + Anti-IgG2a 10 mg/kg IP BIW
[2] = Gr 6: Compound I 150 mg/kg D0-D4, 100 mg/kg D5-D48 PO QD + Anti-IgG2a 10 mg/kg IP BIW

C[S@@](=N)(=O)c1ccc(C(=O)Nc2cc(-c3ccc(F)cc3)ccc2N)cc1 [Compound I, (R)—N-(4-amino-4′-fluoro-[1,1′-biphenyl]-3-yl)-4-(S-methylsulfonimidoyl)benzamide]
PR (partial regression) [1]: 0.0% | Tumor Volume (Gr 5: Compound I 75 mg/kg PO QD + Anti-IgG2a 10 mg/kg IP BIW, day 0 of treatment): 52 ± 2 mm^3 | Tumor Volume (Gr 5: Compound I 75 mg/kg PO QD + Anti-IgG2a 10 mg/kg IP BIW, day 2 of treatment): 218 ± 12 mm^3 | Tumor Volume (Gr 5: Compound I 75 mg/kg PO QD + Anti-IgG2a 10 mg/kg IP BIW, day 4 of treatment): 485 ± 37 mm^3 | Tumor Volume (Gr 5: Compound I 75 mg/kg PO QD + Anti-IgG2a 10 mg/kg IP BIW, day 7 of treatment): 576 ± 45 mm^3 | Tumor Volume (Gr 5: Compound I 75 mg/kg PO QD + Anti-IgG2a 10 mg/kg IP BIW, day 9 of treatment): 622 ± 44 mm^3 | T/C [1]: 29.7% | TGI % [1]: 72.1% | Tumor Volume (Gr 5: Compound I 75 mg/kg PO QD + Anti-IgG2a 10 mg/kg IP BIW, day 11 of treatment): 632 ± 55 mm^3 | Tumor Volume (Gr 5: Compound I 75 mg/kg PO QD + Anti-IgG2a 10 mg/kg IP BIW, day 14 of treatment): 580 ± 85 mm^3 | Tumor Volume (Gr 5: Compound I 75 mg/kg PO QD + Anti-IgG2a 10 mg/kg IP BIW, day 16 of treatment): 557 ± 101 mm^3 | Tumor Volume (Gr 5: Compound I 75 mg/kg PO QD + Anti-IgG2a 10 mg/kg IP BIW, day 18 of treatment): 536 ± 109 mm^3 | Tumor Volume (Gr 5: Compound I 75 mg/kg PO QD + Anti-IgG2a 10 mg/kg IP BIW, day 21 of treatment): 514 ± 117 mm^3 | Tumor Volume (Gr 5: Compound I 75 mg/kg PO QD + Anti-IgG2a 10 mg/kg IP BIW, day 23 of treatment): 502 ± 138 mm^3 | Tumor Volume (Gr 5: Compound I 75 mg/kg PO QD + Anti-IgG2a 10 mg/kg IP BIW, day 25 of treatment): 477 ± 151 mm^3 | Tumor Volume (Gr 5: Compound I 75 mg/kg PO QD + Anti-IgG2a 10 mg/kg IP BIW, day 28 of treatment): 551 ± 171 mm^3 | Tumor Volume (Gr 5: Compound I 75 mg/kg PO QD + Anti-IgG2a 10 mg/kg IP BIW, day 30 of treatment): 815 ± 291 mm^3 | Tumor Volume (Gr 5: Compound I 75 mg/kg PO QD + Anti-IgG2a 10 mg/kg IP BIW, day 32 of treatment): 1001 ± 375 mm^3 | Tumor Volume (Gr 5: Compound I 75 mg/kg PO QD + Anti-IgG2a 10 mg/kg IP BIW, day 34 of treatment): 827 ± 268 mm^3 | Tumor Volume (Gr 5: Compound I 75 mg/kg PO QD + Anti-IgG2a 10 mg/kg IP BIW, day 38 of treatment): 14 mm^3 | Tumor Volume (Gr 5: Compound I 75 mg/kg PO QD + Anti-IgG2a 10 mg/kg IP BIW, day 42 of treatment): 13 mm^3 | Tumor Volume (Gr 5: Compound I 75 mg/kg PO QD + Anti-IgG2a 10 mg/kg IP BIW, day 45 of treatment): 6 mm^3 | Tumor Volume (Gr 5: Compound I 75 mg/kg PO QD + Anti-IgG2a 10 mg/kg IP BIW, day 49 after start of treatment): 0 mm^3 | Tumor Volume (Gr 5: Compound I 75 mg/kg PO QD + Anti-IgG2a 10 mg/kg IP BIW, day 52 after start of treatment): 0 mm^3 | Tumor Volume (Gr 5: Compound I 75 mg/kg PO QD + Anti-IgG2a 10 mg/kg IP BIW, day 56 after start of treatment): 0 mm^3 | Tumor Volume (Gr 5: Compound I 75 mg/kg PO QD + Anti-IgG2a 10 mg/kg IP BIW, day 59 after start of treatment): 0 mm^3 | Tumor Volume (Gr 5: Compound I 75 mg/kg PO QD + Anti-IgG2a 10 mg/kg IP BIW, day 63 after start of treatment): 0 mm^3 | Tumor Volume (Gr 5: Compound I 75 mg/kg PO QD + Anti-IgG2a 10 mg/kg IP BIW, day 66 after start of treatment): 0 mm^3 | CR (complete regression) [2]: 0.0% | ORR (CR + PR) [2]: 0.0% | PR (partial regression) [2]: 0.0% | Tumor Volume (Gr 6: Compound I 150 mg/kg D0-D4, 100 mg/kg D5-D48 PO QD + Anti-IgG2a 10 mg/kg IP BIW, day 0 of treatment): 52 ± 2 mm^3 | Tumor Volume (Gr 6: Compound I 150 mg/kg D0-D4, 100 mg/kg D5-D48 PO QD + Anti-IgG2a 10 mg/kg IP BIW, day 2 of treatment): 205 ± 14 mm^3 | Tumor Volume (Gr 6: Compound I 150 mg/kg D0-D4, 100 mg/kg D5-D48 PO QD + Anti-IgG2a 10 mg/kg IP BIW, day 4 of treatment): 450 ± 40 mm^3 | Tumor Volume (Gr 6: Compound I 150 mg/kg D0-D4, 100 mg/kg D5-D48 PO QD + Anti-IgG2a 10 mg/kg IP BIW, day 7 of treatment): 508 ± 40 mm^3 | Tumor Volume (Gr 6: Compound I 150 mg/kg D0-D4, 100 mg/kg D5-D48 PO QD + Anti-IgG2a 10 mg/kg IP BIW, day 9 of treatment): 636 ± 19 mm^3 | T/C [2]: 41.2% | TGI % [2]: 60.2% | Tumor Volume (Gr 6: Compound I 150 mg/kg D0-D4, 100 mg/kg D5-D48 PO QD + Anti-IgG2a 10 mg/kg IP BIW, day 11 of treatment): 878 ± 66 mm^3 | Tumor Volume (Gr 6: Compound I 150 mg/kg D0-D4, 100 mg/kg D5-D48 PO QD + Anti-IgG2a 10 mg/kg IP BIW, day 14 of treatment): 1090 ± 167 mm^3 | Tumor Volume (Gr 6: Compound I 150 mg/kg D0-D4, 100 mg/kg D5-D48 PO QD + Anti-IgG2a 10 mg/kg IP BIW, day 16 of treatment): 1236 ± 211 mm^3 | Tumor Volume (Gr 6: Compound I 150 mg/kg D0-D4, 100 mg/kg D5-D48 PO QD + Anti-IgG2a 10 mg/kg IP BIW, day 18 of treatment): 1414 ± 243 mm^3 | Tumor Volume (Gr 6: Compound I 150 mg/kg D0-D4, 100 mg/kg D5-D48 PO QD + Anti-IgG2a 10 mg/kg IP BIW, day 21 of treatment): 1728 ± 366 mm^3 | Tumor Volume (Gr 6: Compound I 150 mg/kg D0-D4, 100 mg/kg D5-D48 PO QD + Anti-IgG2a 10 mg/kg IP BIW, day 23 of treatment): 2198 ± 472 mm^3 | Tumor Volume (Gr 6: Compound I 150 mg/kg D0-D4, 100 mg/kg D5-D48 PO QD + Anti-IgG2a 10 mg/kg IP BIW, day 25 of treatment): 2054 ± 638 mm^3 | Tumor Volume (Gr 6: Compound I 150 mg/kg D0-D4, 100 mg/kg D5-D48 PO QD + Anti-IgG2a 10 mg/kg IP BIW, day 28 of treatment): 1705 ± 330 mm^3 | Tumor Volume (Gr 6: Compound I 150 mg/kg D0-D4, 100 mg/kg D5-D48 PO QD + Anti-IgG2a 10 mg/kg IP BIW, day 30 of treatment): 1840 ± 326 mm^3 | Tumor Volume (Gr 6: Compound I 150 mg/kg D0-D4, 100 mg/kg D5-D48 PO QD + Anti-IgG2a 10 mg/kg IP BIW, day 32 of treatment): 1949 ± 395 mm^3 | Tumor Volume (Gr 6: Compound I 150 mg/kg D0-D4, 100 mg/kg D5-D48 PO QD + Anti-IgG2a 10 mg/kg IP BIW, day 34 of treatment): 2089 ± 389 mm^3
